Consider one molecule from publication PMC7760315 (Biomolecules, 2020).

The target of assay [1] is T1, GlyRα1/GlyT2 (Homo sapiens, UniProt Q9Y345).
T1 construct: expressed in transfected cells; host or cells: Xenopus laevis oocytes (cRNA co-injection)
T1 sequence (Q9Y345 1-797): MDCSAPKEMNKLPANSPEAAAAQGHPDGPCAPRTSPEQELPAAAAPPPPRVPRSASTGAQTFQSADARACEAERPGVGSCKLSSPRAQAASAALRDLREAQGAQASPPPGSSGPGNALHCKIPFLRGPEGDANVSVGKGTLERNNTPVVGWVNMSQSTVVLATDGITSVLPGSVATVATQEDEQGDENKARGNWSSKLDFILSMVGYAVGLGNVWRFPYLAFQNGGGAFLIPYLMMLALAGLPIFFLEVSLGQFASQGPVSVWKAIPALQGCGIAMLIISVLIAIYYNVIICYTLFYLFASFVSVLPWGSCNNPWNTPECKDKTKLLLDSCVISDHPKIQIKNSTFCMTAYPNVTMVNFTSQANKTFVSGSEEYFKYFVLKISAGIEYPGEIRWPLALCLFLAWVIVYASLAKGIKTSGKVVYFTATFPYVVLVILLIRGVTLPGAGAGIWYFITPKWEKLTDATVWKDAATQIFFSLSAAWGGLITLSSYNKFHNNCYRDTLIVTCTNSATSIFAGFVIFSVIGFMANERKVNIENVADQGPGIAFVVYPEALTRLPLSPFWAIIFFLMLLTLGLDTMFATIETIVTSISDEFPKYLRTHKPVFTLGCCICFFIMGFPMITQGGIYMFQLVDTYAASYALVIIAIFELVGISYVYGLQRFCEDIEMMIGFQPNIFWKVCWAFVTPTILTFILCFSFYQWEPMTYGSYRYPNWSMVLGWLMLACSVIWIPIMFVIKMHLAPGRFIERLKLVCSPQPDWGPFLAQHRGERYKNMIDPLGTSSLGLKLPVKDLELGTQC
Description: Two-electrode voltage clamp, oocytes co-expressing GlyRα1/GlyT2. It counts as cell-based. Particulars: 1 µM inhibitor; fast-flow. An excerpt:
Human GlyT1b and GlyT2a WT cDNA were subcloned into the plasmid oocyte transcription vector (pOTV) and human GlyRα1, GlyRα3 and GlyRβ into pGEMHE. GlyR cDNA pGEMHE vectors were provided by Mary Collins at the University of Sydney (Sydney, Australia). Single point mutations were introduced into GlyRα1 using the Q5 site-directed mutagenesis kit (New England Biolabs (Genesearch), Arundel, Australia) with oligonucleotide primers (Merck, Sydney, Australia) containing the desired mutations. The amplified cDNA/pOTV or cDNA/pGEMHE product was then transformed in E. coli cells, and subsequently purified using the PureLink Quick Plasmid Miniprep Kit (Invitrogen by Life Technologies, Löhne, Germany), and sequenced by the Australian Genome Research Facility (Sydney, Australia). The purified plasmid DNA was linearised via the restriction enzyme, SpeI (New England Biolabs (Genesearch), Arundel, Australia) for GlyT1b and GlyT2a (henceforth referred to as GlyT1 and GlyT2 respectively) and NheI (New England Biolabs (Genesearch)) for GlyRα1, GlyRα3 and GlyRβ. Complementary RNAs were synthesised using the mMESAGE mMACHINE T7 kit (Ambion, Austin, TX, USA).
All work involving the use of animals was performed in accordance with the Australian Code of Practice for the Care and Use of Animals for Scientific Purposes and approved by the University of Sydney Animal Ethics Committee (Approval numbers 2016/970 and 2020/1704). […] The oocytes were then stored in frog Ringer’s solution (96 mM NaCl, 2 mM KCl, 1 mM MgCl2, 1.8 mM CaCl2, 5 mM HEPES, pH 7.5) which was supplemented with 2.5 mM sodium pyruvate, 0.5 mM theophylline, 50 μg/mL gentamicin and […] tetracycline. The oocytes were stored at 18 °C for 3–5 days, until transporter and receptor expression were adequate for measurement using the two-electrode voltage clamp technique.
GlyT1, GlyT2, GlyRα1, GlyRα3, GlyRα1β and GlyRα3β are electrogenic, allowing activation to be measured via the two-electrode voltage clamp technique. Oocytes were voltage clamped at −60 mV, and whole-cell currents generated by the substrate were recorded with a Geneclamp 500 amplifier (Axon Instruments, Foster City, CA, USA), digitised by a Powerlab 2/20 chart recorder (ADInstruments, Sydney, Australia). LabChart version 8 software (ADInstruments, Sydney, Australia) was used to visualise and process current traces. Recordings were performed in frog Ringer’s solution, except for low Na^+ experiments where Na^+ was replaced with choline. Oocytes were placed in an oval-shaped bath with a volume of 0.3 mL, with laminar flow around the oocyte at a rate of 12 mL min^−1 under gravity feed.
Varying concentrations of substrate or agonist were applied to cells in ND96. […]

Assay [2] deals with GlyT2. To be noted: cited from earlier work.

`COc1cc(C(=O)NCC2(N(C)C)CCCC2)cc(OC)c1OCc1ccccc1` [ORG-25543]: the “nH of glycine dose-response in the presence of GlyT inhibitor” value in assay [1] is 2.6 ± 0.4 ns. Further, the IC50 in assay [2] is 0.016 µM.
